We go through six molecules from US11203577B2, “Sulfonyl-structure-containing triazinone derivatives, their preparation methods and their uses in insect killing and/or bacterium killing” (Nankai University, priority 2017, dated 2021).

Series [1] relates to a variety of pathogenic fungi. As to the kind of experiment: In vitro fungicidal activity, summary over the tested fungi. In kind it is cell-based. As to conditions: 50 mg/kg. Here is the method:
Here, the test is described in an example of Alternaria solani; it can be replaced by other fungi.
In vitro testing method: Alternaria solani is inoculated to a PDA culture medium and cultured for 7 days, a fungus dish with a diameter of […] is prepared on the periphery of the colony with a punch and inoculated to a PDA culture medium that contains pesticide at a concentration of 50 mg/kg and a PDA culture medium that doesn't contain the pesticide, and are cultured for 4 days respectively; then, the colony diameters are measured, and the inhibition percentages of the pesticides are calculated by comparing with the control sample.

In series [2] the test system is Cercospora brown spot of peanut. The experiment in a line: In vitro fungicidal activity, PDA colony diameter. In kind it is cell-based. The conditions noted are these: 96 h, 50 mg/kg, inhibition of colony diameter, read-out: Fungicidal activity (%) Cercospora brown spot of peanut.
The test system of another series is Armyworms. The experiment in a line: Test of insecticidal activity against armyworms (leaf immersion). As to conditions: 600 mg/kg, 3-4 days.
Another series relates to Watermelon anthracnose. The experiment in a line: In vitro fungicidal activity, PDA colony diameter. The conditions noted are these: 50 mg/kg, inhibition of colony diameter; read-out: Fungicidal activity (%) Watermelon anthracnose. In kind it is cell-based.
The next series relates to Wheat sheath blight. The experiment in a line: In vitro fungicidal activity, PDA colony diameter. The conditions noted are these: 50 mg/kg, inhibition of colony diameter; read-out: Fungicidal activity (%) Wheat sheath blight. It counts as cell-based.
For a further series, the system named is Tomato early blight. As to the kind of experiment: In vitro fungicidal activity, PDA colony diameter. As to conditions: 50 mg/kg, inhibition of colony diameter; read-out: Fungicidal activity (%) Tomato early blight. It counts as cell-based, Alternaria solani.
The next series has as its system Wheat head blight. The experiment in a line: whole plant or invertebrate. It counts as cell-based. The conditions noted are these: Triticum aestivum, read-out: Fungicidal activity (%) Wheat head blight.
Another series deals with Sclerotinia rot of colza. As to the kind of experiment: In vitro fungicidal activity, PDA colony diameter. In kind it is cell-based. The conditions noted are these: 96 h, 50 mg/kg, inhibition of colony diameter, read-out: Fungicidal activity (%) Sclerotinia rot of colza.
A further series concerns Potato late blight. As to the kind of experiment: microbe, parasite or virus in culture. In kind it is cell-based. As to conditions: Phytophthora infestans, 96 h, read-out: Fungicidal activity (%) Potato late blight.
A further series relates to Rice bakanae disease. As to the kind of experiment: In vitro fungicidal activity, PDA colony diameter. In kind it is cell-based. The conditions noted are these: read-out: Fungicidal activity (%) Rice bakanae disease.
Series [3] has as its system mosquito larvae (Culer pipiens pallens). As to the kind of experiment: Test of insecticidal activity against mosquito larvae (checked after 24 h). As to conditions: 24 h, read-out: Mortalities (%) against mosquito larvae.
Method: Method of testing against mosquito larvae: the tested mosquito larvae are Culer pipiens pallens, a normal colony fed indoor. About 5 mg compound to be tested is weighed and loaded into a penicillin vial, 5 mL acetone (or an appropriate solvent) is added into the vial, and the vial is oscillated to dissolve the compound; thus, 1,000 ppm mother liquid is obtained. 1 mL mother liquid is weighed and added into a 100 mL beaker filled with 89 mL water, 10 mosquito larvae in the early stage of the 4th instar together with 10 mL feeding solution are poured into the beaker; thus, the concentration of the pesticide solution is 10 ppm (the pesticide solutions with other concentrations are attained by diluting the mother liquid by corresponding times). […] Water solution that contains 0.5 mL test solvent is used as a blank sample.
Series [4] has as its system Capsicum phytophthora blight. The experiment in a line: In vitro fungicidal activity, PDA colony diameter. In kind it is cell-based. The conditions noted are these: 96 h. In short, it runs like this:
(§1)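 Percent growth inhibition derived from colony diameter versus compound-free PDA control after 4 days' culture. Plates contained compound at 50 mg/kg; inoculum was a plug taken from the periphery of a 7-day PDA culture.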

The next series deals with Apple ring rot. The experiment in a line: In vitro fungicidal activity, PDA colony diameter. As to conditions: inhibition of colony diameter. In kind it is cell-based. In short, it runs like this: as §1
The test system of the next series is Rice sheath blight. The experiment in a line: In vitro fungicidal activity, PDA colony diameter. In kind it is cell-based. The conditions noted are these: 50 mg/kg, inhibition of colony diameter; read-out: Fungicidal activity (%) Rice sheath blight.
Another series relates to Maize borers. As to the kind of experiment: Test of insecticidal activity against maize borers (leaf immersion). As to conditions: read-out: Mortalities (%) Maize borers.
In a further series the test system is Cotton bollworms. As to the kind of experiment: Test of insecticidal activity against cotton bollworms (pesticide mixed into feedstuff). The conditions noted are these: read-out: Mortalities (%) Cotton bollworms.
The test system of series [5] is bean aphides (Aphis laburni Kaltenbach). The experiment in a line: Test of insecticidal activity against aphides (leaf immersion, checked after 96 h). As to conditions: Aphis, 96 h, read-out: Mortalities (%) against aphides.
Another series relates to Cucumber fusarium wilt. The experiment in a line: In vitro fungicidal activity, PDA colony diameter. In kind it is cell-based. The conditions noted are these: 96 h, 50 mg/kg, inhibition of colony diameter, read-out: Fungicidal activity (%) Cucumber fusarium wilt.
The subject of series [6] is Corn southern leaf blight. The experiment in a line: In vitro fungicidal activity, PDA colony diameter. The conditions noted are these: 50 mg/kg, inhibition of colony diameter; read-out: Fungicidal activity (%) Corn southern leaf blight. It counts as cell-based.
Where [7] appears, read: 50 mg/kg, inhibition of colony diameter.

Where two headings read alike, the source gives them in different places.

Method for Cotton bollworms: Method of testing against cotton bollworms: the pesticide is mixed into the feedstuff, i.e., 3 mL prepared solution is added into about 27 g freshly prepared feedstuff; thus, required concentration is obtained by diluting by 10 times.

Turning to `CC1=NNC(=O)N(N(S(=O)(=O)c2ccccc2)S(=O)(=O)c2ccccc2)C1` [Ib-5, N-(6-methyl-3-oxo-2,3-dihydro-1,2,4-triazin-4(5H)-yl)-N-(benzenesulfonyl)-benzenesulfonamide], the “fungicidal activity against a variety of pathogenic fungi” value (from here on “fungicidal activity against a variety”) in series [1] was “outstanding fungicidal activity”. Further, the inhibition of growth at 50 mg/kg in [2] was 36.8%; in the series with Sclerotinia rot of colza, 40%; with Potato late blight, 22.2%; in series [4] it was 42.9%; with Cucumber fusarium wilt, 15%. Further, in the series with Armyworms, the “Mortalities (%) Armyworms” value is given as 40%. In addition, the inhibition at 50 mg/kg in the series on Watermelon anthracnose was 20.8%; with Wheat sheath blight it was 68.2%; with Tomato early blight, 38.1%; with Wheat head blight, 10%; in the series on Rice bakanae disease, 22.2%; in the series on Apple ring rot it was 44.8%. The inhibition at 50 mg/kg with Rice sheath blight amounted to 27%; in series [6], 25%. The mortality at 10 mg/kg in [3] is 60%; in [5], 50%. Moreover, the mortality at 600 mg/kg in the series on Maize borers was 25%; in the series with Cotton bollworms it was 20%; in [5], 100%. The mortality at 5 mg/kg in [5] came out at 10%. The mortality at 100 mg/kg in series [5] is 90%.

As to `CC1=NNC(=O)N(NS(=O)(=O)c2ccc(C)cc2)C1` [Ia-12, 4-methyl-N-(6-methyl-3-oxo-2,3-dihydro-1,2,4-triazin-4(5H)-yl)-benzenesulfonamide], the “fungicidal activity against a variety” value in series [1] was “outstanding fungicidal activity”. Also, the inhibition of growth at 50 mg/kg in series [2] amounted to 42.1%; with Sclerotinia rot of colza, 70%; with Potato late blight, 29.6%; in series [4], 40.8%; with Cucumber fusarium wilt, 25%. The “Mortalities (%) Armyworms” value in the series on Armyworms is recorded as 15%. In addition, the inhibition at 50 mg/kg with Watermelon anthracnose came out at 33.3%; in the series with Wheat sheath blight, 72.7%; in the series with Tomato early blight, 33.3%; in the series with Wheat head blight, 13.3%; in the series on Rice bakanae disease (setting [7]) it was 27.8%; in the series with Apple ring rot, 41.4%. In addition, the inhibition at 50 mg/kg amounted to 27% in the series with Rice sheath blight and 33.3% in [6]. The mortality at 2 mg/kg in series [3] worked out at 10%. The mortality at 5 mg/kg in series [3] and in series [5] was 100% in each case. Besides, the mortality at 10 mg/kg in series [3] and in series [5] was 100% throughout. Further, the mortality at 600 mg/kg is 10% in the series on Maize borers, 30% in the series with Cotton bollworms and 100% in series [5]. Also, the mortality at 2.5 mg/kg in series [5] stood at 30%. For the same molecule, in series [5], the mortality at 100 mg/kg was determined as 100%.

In the case of `CCCCS(=O)(=O)NN1CC(C)=NNC1=O` [Ia-4, N-(6-methyl-3-oxo-2,3-dihydro-1,2,4-triazin-4(5H)-yl)-n-butylsulfonamide], the “fungicidal activity against a variety” value in series [1] is recorded as “outstanding fungicidal activity”. Also, the inhibition of growth at 50 mg/kg in series [2] is 15.8%; with Sclerotinia rot of colza it was 48.3%; in the series with Potato late blight, 40.7%; in [4], 46.9%; in the series with Cucumber fusarium wilt, 0%. Moreover, in the series with Armyworms, the “Mortalities (%) Armyworms” value worked out at 5%. Moreover, the inhibition at 50 mg/kg was found to be 25% in the series with Watermelon anthracnose; 70.5% in the series with Wheat sheath blight; 14.3% in the series with Tomato early blight; 6.7% in the series with Wheat head blight; 38.9% in the series on Rice bakanae disease (setting [7]); 31% in the series on Apple ring rot. Further, the inhibition at 50 mg/kg came to 34.9% in the series on Rice sheath blight and 33.3% in [6]. Further, the mortality at 10 mg/kg in [3] and in series [5] was 20% in each case. Further, the mortality at 600 mg/kg with Maize borers was found to be 5%; in the series with Cotton bollworms, 0%; in series [5], 85%. Further, the mortality at 100 mg/kg in series [5] is 70%.

Regarding `CC1=NNC(=O)N(NS(=O)(=O)c2ccc(F)c(F)c2F)C1` [Ia-20, 2,3,4-trifluoro-N-(6-methyl-3-oxo-2,3-dihydro-1,2,4-triazin-4(5H)-yl)-benzenesulfonamide], the inhibition of growth at 50 mg/kg in series [2] amounted to 12%; with Sclerotinia rot of colza it was 15.8%; in the series with Potato late blight, 18.7%; in series [4], 0%; with Cucumber fusarium wilt, 0%. The “Mortalities (%) Armyworms” value in the series on Armyworms was determined as 65%. Moreover, the inhibition at 50 mg/kg came to 13.1% in the series on Watermelon anthracnose; 17.4% with Wheat sheath blight; 16.4% with Tomato early blight; 5.4% in the series on Wheat head blight; 10.3% with Rice bakanae disease (setting [7]); 4.1% in the series on Apple ring rot. The figures for the inhibition at 50 mg/kg (with Rice sheath blight; in series [6]) were 9.3% and 3.1%, respectively. Moreover, the mortality at 2 mg/kg in series [3] worked out at 20%. In addition, the mortality at 5 mg/kg in [3] is 100%; in series [5], 10%. In addition, the mortality at 10 mg/kg is 100% in series [3] and 70% in series [5]. Moreover, the values for the mortality at 600 mg/kg (in the series with Maize borers; in the series with Cotton bollworms; in [5]) were 50%, 20% and 100%, respectively. In addition, the mortality at 100 mg/kg in [5] was determined as 100%.

On to `CC1=NNC(=O)N(NS(=O)(=O)C2CC2)C1` [Ia-5, N-(6-methyl-3-oxo-2,3-dihydro-1,2,4-triazin-4(5H)-yl)-cyclopropylsulfonamide], for which the inhibition of growth at 50 mg/kg stood at 8% in series [2]; 21% with Sclerotinia rot of colza; 64.5% with Potato late blight; 5.6% in series [4]; 8.8% in the series with Cucumber fusarium wilt. Also, the “Mortalities (%) Armyworms” value with Armyworms came out at 10%. The inhibition at 50 mg/kg is 16.4% in the series with Watermelon anthracnose; 8.7% with Wheat sheath blight; 14.9% in the series with Tomato early blight; 10.8% with Wheat head blight; 20.7% with Rice bakanae disease (setting [7]); 10.8% with Apple ring rot. Further, the inhibition at 50 mg/kg with Rice sheath blight worked out at 19.8%; in [6], 18.7%. Also, the mortality at 10 mg/kg in [3] is 10%; in [5] it was 30%. For the same molecule, the mortality at 600 mg/kg in the series with Maize borers stood at 10%; in the series on Cotton bollworms, 15%; in series [5] it was 100%. Further, the mortality at 100 mg/kg in [5] worked out at 85%.

With `CC1=NNC(=O)N(NS(=O)(=O)c2c(C)cc(C)cc2C)C1` [Ia-13, 2,4,6-trimethyl-N-(6-methyl-3-oxo-2,3-dihydro-1,2,4-triazin-4(5H)-yl)-benzenesulfonamide], the inhibition of growth at 50 mg/kg in series [2] stood at 12%; in the series with Sclerotinia rot of colza it was 21%; in the series on Potato late blight it was 25%; in series [4], 22.2%; in the series on Cucumber fusarium wilt, 0%. Also, the “Mortalities (%) Armyworms” value in the series with Armyworms is 65%. For the same molecule, the inhibition at 50 mg/kg in the series with Watermelon anthracnose turned out to be 24.6%; with Wheat sheath blight it was 4.3%; in the series on Tomato early blight, 9%; with Wheat head blight, 16.2%; with Rice bakanae disease (setting [7]), 13.8%; with Apple ring rot, 10.8%. The inhibition at 50 mg/kg in the series on Rice sheath blight worked out at 11.6%; in series [6], 28.1%. Besides, the mortality at 2 mg/kg in series [3] is 20%. Besides, the mortality at 5 mg/kg amounted to 100% in series [3] and 60% in [5]. For the same molecule, the mortality at 10 mg/kg in series [3] and in series [5] was 100% in each case. The mortality at 600 mg/kg came to 45% with Maize borers, 30% in the series with Cotton bollworms and 100% in series [5]. The mortality at 2.5 mg/kg in series [5] amounted to 10%. Moreover, the mortality at 100 mg/kg in series [5] is 100%.
